According to ChEMBL document CHEMBL2094269, “WEHI/Eskitis Trypanosoma b. brucei screening data”:
Values joined by “and” are separate entries in the source; they are usually repeats but may differ in a detail not shown here. Identical values can stand only once.

Test system: Trypanosoma brucei brucei
Assay: microbe, parasite or virus in culture
Type: functional, organism-based, STIB 795
Conditions: not given

IC50	SMILES
5.54 µM	CCN1/C(=C/C2=CC(=O)CC(C)(C)C2)Sc2ccccc21
5.11 µM and 1.33 µM	O=C1CC(n2nnn(C3CCCCC3)c2=S)C2COC1O2 (stereo not drawn)

Same assay, conditions: Trypanosoma brucei, STIB 795

SMILES	IC50
CCCCOc1ccc(C(=O)NNC(=S)NC(=O)CC)cc1	> 10.4 µM
CCN(CC)CCOC(COC)(c1ccc(Cl)cc1)c1ccc(Cl)cc1	> 10.4 µM
O=C(NCC1CCCO1)c1cnc2sc3c(n2c1=O)CCC3 (stereo not drawn)	> 10.4 µM
Cc1c(-c2ccc(O)c(O)c2)oc2ccccc2c1=O	> 10.4 µM
O=C1C(=O)N(CO)c2ccc(Br)cc21	> 10.4 µM
O=C(/C=C/c1ccccc1)Nc1c(-c2ccccc2)nc2ccc(Cl)cn12	> 10.4 µM
Oc1ccc(/N=N/c2ccccc2C(F)(F)F)c2cccnc12	> 10.4 µM
O=C(NN=C(/C=C/c1ccccc1)c1ccccc1)c1cc2ccccc2cc1O	> 10.4 µM
C=CCNC(=O)CCCc1nc2cccnc2n1Cc1ccc(F)cc1	> 10.4 µM
OC(CNCc1ccccc1)COc1cc2ccsc2c2ccccc12 (stereo not drawn)	> 10.4 µM
Cn1ccnc1-c1c(-c2ccc(Cl)cc2)nc(-c2ccc(Cl)cc2)n1O	> 10.4 µM
COc1cc2c(cc1Cl)/C(=C\CCN(C)C)c1ccccc1S2	> 10.4 µM
O=c1oc2c(cc(NS(=O)(=O)c3ccc(F)cc3)c3ccccc32)s1	> 10.4 µM
O=C(Nc1nc(-c2ccncc2)cs1)c1ccc(Oc2ccccc2)cc1	> 10.4 µM
CSc1cccc(C(=O)Nc2cc(F)c(F)cc2Cl)c1	> 10.4 µM
CC(C)(C)C(=O)Nc1cccc(NC(=O)c2ccc(C(C)(C)C)cc2)c1	> 10.4 µM
COC(C(=O)NCc1ccc(Cl)cc1)(c1ccccc1)c1ccccc1	> 10.4 µM
CCCCC(O)(CCCC)C(=O)NNc1ccc(C)cc1	> 10.4 µM
NC(=S)N/N=C(/c1ccc(C(F)(F)F)cc1)c1ccccn1	> 10.4 µM
O=C1/C(=N\c2ccccc2)Sc2ccccc21	> 10.4 µM
N/C(=N\OC(=O)c1ccccc1F)c1ccccc1	> 10.4 µM
CCn1cc(C(=O)N(C)c2ccccc2F)c2cc(OC)c(OC)cc2c1=O	> 10.4 µM

SMILES	IC50
CC1=C(C)C(=O)C(c2cccs2)=C(C)C1=O	> 10.4 µM
ON=C(/C=C/c1ccccc1)/C=C/c1ccccc1	> 10.4 µM
O=C(Nc1ccccc1C(=O)N/N=C/c1ccccc1O)c1ccccc1Cl	> 10.4 µM
CC1CC(OCC(O)CN2CCC(Cc3ccccc3)CC2)CC(C)(C)C1 (stereo not drawn)	> 10.4 µM
Oc1ccccc1/C=N\NC(=S)Nc1ccc(F)cc1	> 10.4 µM
CCOC(=O)C(=Cc1ccc(Br)cc1)C(=O)OCC	> 10.4 µM
COc1ccc(C(=O)O/N=C(\N)c2cccnc2)cc1	> 10.4 µM
COc1cc(/C=C/c2cc(C(F)(F)F)nc(=O)[nH]2)ccc1O	> 10.4 µM
Nc1ncc(CCc2cccc(-c3ccccc3)c2)c(N)n1	> 10.4 µM
O=C(/C=C/n1c(=O)oc2ccccc21)c1ccccc1	> 10.4 µM
Cc1ccc(S(=O)(=O)Nc2ccc(Cl)c3cccnc23)cc1	> 10.4 µM
O=C(CC1(O)C(=O)Nc2ccc(Br)cc21)c1ccc(Cl)s1 (stereo not drawn)	> 10.4 µM
Nc1nc(Nc2ccccc2)sc1C(=O)c1c[nH]c2ccccc12	> 10.4 µM
CCC(=C\C1=[N+](C)c2ccccc2C1(C)C)/C=C1/N(C)c2ccccc2C1(C)C	> 10.4 µM
C=CCn1c(=O)c(=O)n(CCC(=O)NCc2cccnc2)c2ccccc21	> 10.4 µM
Cc1ccc(Cl)cc1N1CCN(CCN)CC1	> 10.4 µM
CC1=C/C(=N\OC(=O)c2ccccc2Br)CC(C)(C)C1	> 10.4 µM
COc1cccc(C2=CC(c3cc(OC)c(OC)c(OC)c3)n3nnnc3N2)c1 (stereo not drawn)	> 10.4 µM
Cc1cc(C)c(C(=O)CC(SCC(=O)OC(C)C)C(F)(F)F)c(=O)[nH]1 (stereo not drawn)	> 10.4 µM
N#CC1=C(N)OC2=C(CC/C2=C\c2ccccc2Cl)C1c1ccccc1Cl (stereo not drawn)	> 10.4 µM
CC(NCC(O)COCCC12CC3CC(CC(C3)C1)C2)c1ccccc1 (stereo not drawn)	> 10.4 µM
Brc1ccc(C2Nc3cccc4cccc(c34)N2)o1	> 10.4 µM

SMILES	IC50
N=C(NOC(=O)c1cccc(Cl)c1)c1cccnc1	> 10.4 µM
O=C1C(=O)N(Cc2cc(F)cc(F)c2)c2ccc(Br)cc21	> 10.4 µM
Cc1cnc(NC(=O)c2ccc(Cl)c(Cl)c2)s1	> 10.4 µM
CCC(C)(CC)c1ccc(C(CN)c2ccc(-c3ccccc3)cc2)cc1 (stereo not drawn)	> 10.4 µM
O=c1cc(-c2ccccc2)c2ccc(O)c(O)c2o1	> 10.4 µM
Cc1ccc(C(=N)NOC(=O)c2ccco2)cc1	> 10.4 µM
C=CCN1C(=O)c2[nH]nc(-c3c(C)cc(C)cc3O)c2C1c1ccc(F)cc1 (stereo not drawn)	> 10.4 µM
NC(CCCCc1ccccc1)c1cccc2ccccc12 (stereo not drawn)	> 10.4 µM
Clc1ncnc2c1C(c1ccccc1)c1c(Cl)ncnc1O2	> 10.4 µM
c1ccc(-c2cc(-c3ccccn3)nc(-c3ccccn3)c2)cc1	> 10.4 µM
CCn1c(C)cc(=S)c2ccccc21	> 10.4 µM
O=C(CCN1CCC(c2ccccc2)C1)c1ccco1 (stereo not drawn)	> 10.4 µM
O=C(CCSc1ccccc1)Nc1nc(-c2ccccn2)cs1	> 10.4 µM
CC1=C(C#N)C(C)C2=C(c3ccccc3C2=O)N1C (stereo not drawn)	> 10.4 µM
CC(C)(C)N(NC(=O)Nc1ccc(Cl)cc1)C(=O)c1ccccc1F	> 10.4 µM
COC(=O)c1sc(=S)n(-c2cc(F)ccc2F)c1N	> 10.4 µM
Cc1ccc(C2=NC(c3ccccc3F)NC(c3ccccc3O)C2)cc1 (stereo not drawn)	> 10.4 µM
CCCCCn1c(C(Cc2ccccc2)NC(=O)COC)nc2ccccc21 (stereo not drawn)	> 10.4 µM
C=CCn1c(Oc2ccccc2Cl)nc2c1c(=O)n(C)c(=O)n2C	> 10.4 µM
Cc1ccc(C(=O)O/N=C(\N)c2cccnc2)cc1Cl	> 10.4 µM

Now from value to compound:

IC50	SMILES
> 10.4 µM	CC1CC(NC2CCCCC2)=Nc2ccccc2N1Cc1ccccc1 (stereo not drawn)
> 10.4 µM	Cn1c(=O)sc2cc(S(=O)(=O)Nc3cccc4cccnc34)ccc21
> 10.4 µM	CON(C)C(=O)Nc1ccc(Cl)c(CN2OCC(C)(C)C2=O)c1
> 10.4 µM	COc1ccc(Nc2nc(N3CCN(C)CC3)nc3c2cnn3C)cc1Cl
> 10.4 µM	CN(C)c1ccc(C2(c3ccc(N(C)C)cc3)C=Cc3ccccc3O2)cc1
> 10.4 µM	COc1ccc2c(C)c/c(=N/N=C\c3ccccc3O)[nH]c2c1
> 10.4 µM	CC1=C/C(=N\OC(=O)c2ccccc2Cl)CC(C)(C)C1
> 10.4 µM	CCCCOC(=O)c1ccc(NC(=O)c2ccc(C3CCCCC3)cc2)cc1
> 10.4 µM	CCCNc1nc(NC2CCCCC2)nc(NC2CCCCC2)n1
> 10.4 µM	Cc1ccc(C(CNC(=O)COc2ccc(Cl)cc2)N2CCCC2)cc1 (stereo not drawn)
> 10.4 µM	CCOc1nc(Nc2ccc(Cl)cc2)nc(NC2CCCCC2)n1
> 10.4 µM	O=NC1=C(c2c(O)[nH]c3ccccc23)CCCC1
> 10.4 µM	Cc1ccc(Nc2nc3nonc3nc2NC(C)(C)C)cc1Cl
> 10.4 µM	CCC(C)NC(=O)c1cccc(Nc2ccnc(-c3ccccc3)n2)c1 (stereo not drawn)
> 10.4 µM	CCC(=O)Nc1nc2ccccc2n1Cc1ccccc1C
> 10.4 µM	Oc1ccccc1/C=N/Nc1ncc(Cl)cc1Cl
> 10.4 µM	CCCN(CCC)CC(O)COc1ccc2ccccc2c1 (stereo not drawn)
> 10.4 µM	O=c1[nH]c(NCCCO)nc2sc3c(c12)CCCC3
> 10.4 µM	C/C(=C\c1nsc(Nc2ccc(F)c(Cl)c2)n1)NCCC1=CCCCC1

IC50	SMILES
> 10.4 µM	COC(=O)c1cc(-c2ccccc2)nc2c1C(=O)C(=O)C=C2N1CCCCC1
> 10.4 µM	S=C1N(c2ccccc2)c2ccccc2C12CCOCC2
> 10.4 µM	CN(C)CCCC1(C)Oc2ccccc2Sc2ccccc21 (stereo not drawn)
> 10.4 µM	Cc1c(NC(=O)CN2CCN(C(=O)c3ccccc3)CC2)n(C)c2ccccc12
> 10.4 µM	CCCC(=O)c1ccc(N2CCN(C(=O)c3c(F)cccc3F)CC2)c(F)c1
> 10.4 µM	CCOc1cccc(/C=N/NC(=O)c2cc(-c3ccc(CC)cc3)n[nH]2)c1O
> 10.4 µM	Oc1ccc(/C=N/N2CCN(c3ccccc3)CC2)cc1O
> 10.4 µM	O=C1C=C(N2CCCCC2c2cccnc2)C2(CCCCC2)O1 (stereo not drawn)
> 10.4 µM	O=C(N/N=C/c1ccc(O)c2ncccc12)c1ccco1
> 10.4 µM	CCN(CC)CC(O)CN(/N=C/c1ccc(N(CC)CC)cc1)c1ccccc1 (stereo not drawn)
> 10.4 µM	COc1ccccc1C(=O)NCCc1csc(-c2cccc(F)c2)n1
> 10.4 µM	Cc1ccc(NC(=O)CN(C)C(=O)c2ccc3c(c2)nnn3C(C)C)c(Cl)c1
> 10.4 µM	Cc1nc(N)nc(N)c1[C@@H]1CCC[C@@H](c2ccc(C(F)(F)F)cc2)C1
> 10.4 µM	COC(=O)c1ccccc1N/N=N/c1nc2ccccc2s1
> 10.4 µM	Cc1cc(C(=O)N/N=C/c2cc(/N=N/c3ccccc3)ccc2O)[nH]n1
5.4 µM	CCN1/C(=C/C2=CC(=O)CC(C)(C)C2)Sc2ccccc21
> 10.4 µM	O=C(N/N=C/c1ccc(O)c2ncccc12)c1ccc(F)cc1
> 10.4 µM	Cc1ccc(O)c(/C=N/NC(=O)c2[nH]ncc2Br)c1
> 10.4 µM	CC(=O)NC1=C(N2CCN(c3ccc(F)cc3)CC2)C(=O)c2ccccc2C1=O

IC50	SMILES
> 10.4 µM	N#Cc1c(N)nc(SCc2ccccc2)c(C#N)c1C1CCCCC1
> 10.4 µM	CN1CCN(C2Cc3ccccc3Sc3cc(C(F)(F)F)ccc32)CC1 (stereo not drawn)
> 10.4 µM	O=C(CN1C2=NCCN2c2ccccc21)c1ccc(Cl)cc1
> 10.4 µM	CN(C)c1ccc(/C=N/Nc2cc(N3CCCC3)nc(N3CCCC3)n2)cc1
> 10.4 µM	CCOC(=O)CNC(=O)c1ccc2c(Cl)c3c(nc2c1)CCCC3
> 10.4 µM	Fc1ccccc1Cn1c(C2CCCO2)nc2ccccc21 (stereo not drawn)
> 10.4 µM	CCn1c2ccccc2c2cc(/C=N/NC(=O)c3ccccn3)ccc21
> 10.4 µM	Cc1nc2ccc3nc(NC(=O)c4ccc(Cl)cc4Cl)sc3c2s1
> 10.4 µM	Cc1cccc(/C(=N\c2ccc(C)c(Cl)c2)NC2CCCCC2)c1
> 10.4 µM	CCCN1C/C(=C/c2cccc(F)c2)C(=O)/C(=C/c2cccc(F)c2)C1
> 10.4 µM	COC(=O)C1=C(C)N(c2ccccc2)/C(=C/c2cccc3ccccc23)C1=O
> 10.4 µM	CCN(CC)CCn1c2ccccc2c2nc3ccccc3nc21
> 10.4 µM	COc1ccc(C(=O)O/N=C(\N)c2ccc(Br)cc2)c(OC)c1
> 10.4 µM	COc1ccc(-c2nc3c(=O)n(C)c(=O)nc-3n(C)n2)cc1OC
> 10.4 µM	CCn1nc(-c2ccc(OC)cc2)nc2c(=O)n(C)c(=O)nc1-2
> 10.4 µM	O=C(O/N=C(/c1ccc2c(c1)OCO2)N1CCCCC1)c1ccccc1
> 10.4 µM	CCOC(=O)N1CCN(c2ccc(/C=C(\C#N)c3nc4ccccc4[nH]3)o2)CC1
> 10.4 µM	Cc1cccc(C(=N)NOC(=O)c2ccc3c(c2)OCO3)c1
> 10.4 µM	Cc1ccc(S(=O)(=O)/N=C2\C=C(N3CCOCC3)C(=O)c3ccccc32)cc1
